Molecules are shown by their SMILES. Calls of active or inactive are those of the source. A value given as a limit tells only on which side of the number the result lay.

In test [1] the target is Non-receptor tyrosine-protein kinase TYK2 (Homo sapiens, UniProt P29597).
For test [2], the target named is T1, Ras-related protein Rab-27A (Homo sapiens, UniProt P51159).
T1 sequence (P51159 whole entry): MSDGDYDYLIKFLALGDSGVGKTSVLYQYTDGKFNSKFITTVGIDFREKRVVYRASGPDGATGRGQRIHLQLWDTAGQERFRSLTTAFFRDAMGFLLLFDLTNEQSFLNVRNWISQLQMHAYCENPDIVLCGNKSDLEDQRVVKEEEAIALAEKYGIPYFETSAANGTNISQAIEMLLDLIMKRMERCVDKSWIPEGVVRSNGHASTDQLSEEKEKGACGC

For test [3], the target named is Cyclin-dependent kinase 1 (Homo sapiens, UniProt P06493).
Cyclin-dependent kinase 1, sequence (P06493 whole entry): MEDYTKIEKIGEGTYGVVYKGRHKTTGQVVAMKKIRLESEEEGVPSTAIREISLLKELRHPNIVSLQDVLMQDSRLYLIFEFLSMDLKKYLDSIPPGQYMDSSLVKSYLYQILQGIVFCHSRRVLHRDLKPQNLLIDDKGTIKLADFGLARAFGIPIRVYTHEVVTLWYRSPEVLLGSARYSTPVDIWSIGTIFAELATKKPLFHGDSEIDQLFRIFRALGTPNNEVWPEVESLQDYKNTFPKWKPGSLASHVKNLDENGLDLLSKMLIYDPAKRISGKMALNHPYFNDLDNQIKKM
Test [4] concerns the target Mitotic checkpoint serine/threonine-protein kinase BUB1 (Homo sapiens, UniProt O43683).
Test [5] deals with T2, Signal recognition particle receptor subunit alpha (Homo sapiens, UniProt P08240).
T2 sequence (P08240 whole entry): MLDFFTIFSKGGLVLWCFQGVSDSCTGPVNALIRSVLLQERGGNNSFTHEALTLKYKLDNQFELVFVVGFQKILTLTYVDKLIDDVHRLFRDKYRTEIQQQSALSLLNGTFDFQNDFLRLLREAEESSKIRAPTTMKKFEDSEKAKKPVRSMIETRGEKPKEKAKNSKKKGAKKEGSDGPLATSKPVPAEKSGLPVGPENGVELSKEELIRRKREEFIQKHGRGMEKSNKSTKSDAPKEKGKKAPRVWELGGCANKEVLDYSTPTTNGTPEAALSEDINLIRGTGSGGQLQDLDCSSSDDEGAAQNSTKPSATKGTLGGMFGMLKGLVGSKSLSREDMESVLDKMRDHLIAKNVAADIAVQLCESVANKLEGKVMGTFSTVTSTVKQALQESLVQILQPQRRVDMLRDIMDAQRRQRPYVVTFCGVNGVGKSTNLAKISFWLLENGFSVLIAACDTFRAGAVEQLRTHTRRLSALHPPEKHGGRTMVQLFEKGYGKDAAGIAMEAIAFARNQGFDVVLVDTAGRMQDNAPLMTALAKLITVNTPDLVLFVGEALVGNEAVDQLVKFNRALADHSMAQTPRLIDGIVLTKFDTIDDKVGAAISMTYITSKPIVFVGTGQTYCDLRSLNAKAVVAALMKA

The target in a further test is Actin-related protein 2 (Homo sapiens, UniProt P61160).
The target of test [6] is Cyclin-dependent kinase 7 (Homo sapiens, UniProt P50613).
Cyclin-dependent kinase 7, sequence (P50613 whole entry): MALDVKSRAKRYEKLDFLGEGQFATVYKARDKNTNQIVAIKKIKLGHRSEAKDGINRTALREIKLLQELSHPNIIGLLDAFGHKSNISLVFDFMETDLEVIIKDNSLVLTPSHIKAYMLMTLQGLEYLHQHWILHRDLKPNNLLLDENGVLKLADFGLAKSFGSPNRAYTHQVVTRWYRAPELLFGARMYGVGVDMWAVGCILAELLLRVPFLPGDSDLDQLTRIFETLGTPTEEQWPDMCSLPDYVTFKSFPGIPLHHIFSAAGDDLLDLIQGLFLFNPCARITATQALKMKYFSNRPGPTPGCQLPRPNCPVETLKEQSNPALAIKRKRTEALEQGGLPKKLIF
The target in a further test is T3, Ephrin type-B receptor 6 (Homo sapiens, UniProt O15197).
T3 sequence (O15197 whole entry): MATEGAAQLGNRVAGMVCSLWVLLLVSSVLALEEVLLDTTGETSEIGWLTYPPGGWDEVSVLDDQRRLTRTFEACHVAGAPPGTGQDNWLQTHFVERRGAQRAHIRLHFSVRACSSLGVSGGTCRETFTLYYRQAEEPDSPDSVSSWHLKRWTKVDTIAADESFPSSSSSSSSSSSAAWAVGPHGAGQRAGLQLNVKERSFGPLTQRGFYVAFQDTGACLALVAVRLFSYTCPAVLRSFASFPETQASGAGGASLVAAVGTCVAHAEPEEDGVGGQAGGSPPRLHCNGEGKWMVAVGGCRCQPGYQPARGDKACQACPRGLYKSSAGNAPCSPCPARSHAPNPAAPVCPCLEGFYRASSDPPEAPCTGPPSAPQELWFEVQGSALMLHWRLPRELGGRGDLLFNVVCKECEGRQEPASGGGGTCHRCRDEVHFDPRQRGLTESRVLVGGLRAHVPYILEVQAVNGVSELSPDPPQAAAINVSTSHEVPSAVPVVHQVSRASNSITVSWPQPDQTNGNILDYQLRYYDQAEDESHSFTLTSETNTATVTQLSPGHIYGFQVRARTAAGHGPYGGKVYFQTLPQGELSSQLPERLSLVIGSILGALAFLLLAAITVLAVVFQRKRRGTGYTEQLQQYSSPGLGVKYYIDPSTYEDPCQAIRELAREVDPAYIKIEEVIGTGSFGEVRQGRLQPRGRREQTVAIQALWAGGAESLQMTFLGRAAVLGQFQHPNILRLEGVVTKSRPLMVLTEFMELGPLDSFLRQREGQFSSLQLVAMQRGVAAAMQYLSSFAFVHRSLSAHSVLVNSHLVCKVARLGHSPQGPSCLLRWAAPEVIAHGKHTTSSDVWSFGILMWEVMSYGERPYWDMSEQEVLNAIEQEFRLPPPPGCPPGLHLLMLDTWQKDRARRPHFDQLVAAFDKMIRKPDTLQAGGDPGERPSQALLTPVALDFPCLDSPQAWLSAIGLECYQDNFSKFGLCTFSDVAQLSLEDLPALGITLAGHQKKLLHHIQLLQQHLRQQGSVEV

Test [7] has as its target T4, Cysteine--tRNA ligase, cytoplasmic (Homo sapiens, UniProt P49589).
T4 sequence (P49589 whole entry): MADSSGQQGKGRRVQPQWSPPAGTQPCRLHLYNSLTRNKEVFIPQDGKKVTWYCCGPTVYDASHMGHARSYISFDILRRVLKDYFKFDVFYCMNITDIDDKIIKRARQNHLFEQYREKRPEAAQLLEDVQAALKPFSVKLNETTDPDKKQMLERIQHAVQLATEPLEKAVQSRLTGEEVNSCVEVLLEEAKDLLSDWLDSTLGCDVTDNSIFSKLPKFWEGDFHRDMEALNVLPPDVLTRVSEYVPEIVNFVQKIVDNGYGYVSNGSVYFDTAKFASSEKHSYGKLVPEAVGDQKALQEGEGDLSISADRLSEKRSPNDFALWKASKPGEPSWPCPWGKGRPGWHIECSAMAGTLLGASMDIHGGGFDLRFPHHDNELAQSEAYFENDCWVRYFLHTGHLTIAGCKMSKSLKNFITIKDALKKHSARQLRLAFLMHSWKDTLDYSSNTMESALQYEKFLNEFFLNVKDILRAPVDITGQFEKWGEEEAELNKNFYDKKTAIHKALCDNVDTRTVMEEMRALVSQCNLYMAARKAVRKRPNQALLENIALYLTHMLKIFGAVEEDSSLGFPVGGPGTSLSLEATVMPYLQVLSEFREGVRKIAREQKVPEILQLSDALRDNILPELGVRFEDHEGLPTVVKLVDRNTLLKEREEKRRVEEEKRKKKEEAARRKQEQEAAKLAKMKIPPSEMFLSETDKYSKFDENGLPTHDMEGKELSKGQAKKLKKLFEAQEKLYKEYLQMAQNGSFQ

Test [8] addresses Glycogen synthase kinase-3 alpha (Homo sapiens, UniProt P49840).
Note: in the data inactive means no Kd found up to 30 µM.

Non-receptor tyrosine-protein kinase TYK2, sequence (P29597 whole entry): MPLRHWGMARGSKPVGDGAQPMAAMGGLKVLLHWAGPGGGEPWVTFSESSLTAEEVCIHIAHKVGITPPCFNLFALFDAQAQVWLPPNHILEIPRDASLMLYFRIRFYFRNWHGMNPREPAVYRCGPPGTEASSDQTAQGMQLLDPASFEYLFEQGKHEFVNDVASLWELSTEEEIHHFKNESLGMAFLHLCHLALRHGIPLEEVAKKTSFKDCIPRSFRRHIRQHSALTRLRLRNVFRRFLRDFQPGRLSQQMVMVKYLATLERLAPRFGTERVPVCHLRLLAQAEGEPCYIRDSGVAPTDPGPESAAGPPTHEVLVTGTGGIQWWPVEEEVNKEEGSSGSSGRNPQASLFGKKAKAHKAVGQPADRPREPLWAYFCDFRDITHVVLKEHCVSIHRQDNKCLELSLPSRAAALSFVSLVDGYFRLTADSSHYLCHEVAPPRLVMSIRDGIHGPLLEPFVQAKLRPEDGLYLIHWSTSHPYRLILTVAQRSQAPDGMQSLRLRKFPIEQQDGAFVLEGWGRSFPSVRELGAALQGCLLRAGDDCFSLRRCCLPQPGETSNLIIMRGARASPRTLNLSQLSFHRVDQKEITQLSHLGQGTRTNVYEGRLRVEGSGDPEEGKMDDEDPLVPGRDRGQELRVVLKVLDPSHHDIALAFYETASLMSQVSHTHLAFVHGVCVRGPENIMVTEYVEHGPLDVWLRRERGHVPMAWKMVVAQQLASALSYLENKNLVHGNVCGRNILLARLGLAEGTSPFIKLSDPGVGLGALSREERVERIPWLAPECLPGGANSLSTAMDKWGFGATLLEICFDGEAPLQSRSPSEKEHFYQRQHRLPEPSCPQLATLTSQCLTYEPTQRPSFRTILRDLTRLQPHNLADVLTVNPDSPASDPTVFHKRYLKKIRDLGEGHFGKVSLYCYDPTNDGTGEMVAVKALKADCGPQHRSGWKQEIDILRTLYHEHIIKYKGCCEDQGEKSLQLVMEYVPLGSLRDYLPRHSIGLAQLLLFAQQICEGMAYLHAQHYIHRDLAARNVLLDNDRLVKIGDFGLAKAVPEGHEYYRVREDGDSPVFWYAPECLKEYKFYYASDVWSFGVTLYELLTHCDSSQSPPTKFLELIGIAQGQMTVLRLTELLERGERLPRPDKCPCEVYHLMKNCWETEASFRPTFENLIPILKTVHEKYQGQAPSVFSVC
Glycogen synthase kinase-3 alpha, sequence (P49840 whole entry): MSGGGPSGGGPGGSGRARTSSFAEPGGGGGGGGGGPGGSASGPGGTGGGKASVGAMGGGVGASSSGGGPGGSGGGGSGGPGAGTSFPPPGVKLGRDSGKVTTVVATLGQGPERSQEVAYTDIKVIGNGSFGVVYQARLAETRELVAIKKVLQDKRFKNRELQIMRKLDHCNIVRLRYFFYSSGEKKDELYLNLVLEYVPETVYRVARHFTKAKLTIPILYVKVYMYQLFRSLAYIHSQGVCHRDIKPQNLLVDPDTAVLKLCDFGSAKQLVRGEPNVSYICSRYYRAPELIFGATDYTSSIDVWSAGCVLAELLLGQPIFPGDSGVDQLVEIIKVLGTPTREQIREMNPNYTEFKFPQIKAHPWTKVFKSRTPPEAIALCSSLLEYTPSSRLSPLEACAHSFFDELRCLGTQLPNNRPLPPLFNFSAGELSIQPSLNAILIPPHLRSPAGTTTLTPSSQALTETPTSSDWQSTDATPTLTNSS
Mitotic checkpoint serine/threonine-protein kinase BUB1, sequence (O43683 whole entry): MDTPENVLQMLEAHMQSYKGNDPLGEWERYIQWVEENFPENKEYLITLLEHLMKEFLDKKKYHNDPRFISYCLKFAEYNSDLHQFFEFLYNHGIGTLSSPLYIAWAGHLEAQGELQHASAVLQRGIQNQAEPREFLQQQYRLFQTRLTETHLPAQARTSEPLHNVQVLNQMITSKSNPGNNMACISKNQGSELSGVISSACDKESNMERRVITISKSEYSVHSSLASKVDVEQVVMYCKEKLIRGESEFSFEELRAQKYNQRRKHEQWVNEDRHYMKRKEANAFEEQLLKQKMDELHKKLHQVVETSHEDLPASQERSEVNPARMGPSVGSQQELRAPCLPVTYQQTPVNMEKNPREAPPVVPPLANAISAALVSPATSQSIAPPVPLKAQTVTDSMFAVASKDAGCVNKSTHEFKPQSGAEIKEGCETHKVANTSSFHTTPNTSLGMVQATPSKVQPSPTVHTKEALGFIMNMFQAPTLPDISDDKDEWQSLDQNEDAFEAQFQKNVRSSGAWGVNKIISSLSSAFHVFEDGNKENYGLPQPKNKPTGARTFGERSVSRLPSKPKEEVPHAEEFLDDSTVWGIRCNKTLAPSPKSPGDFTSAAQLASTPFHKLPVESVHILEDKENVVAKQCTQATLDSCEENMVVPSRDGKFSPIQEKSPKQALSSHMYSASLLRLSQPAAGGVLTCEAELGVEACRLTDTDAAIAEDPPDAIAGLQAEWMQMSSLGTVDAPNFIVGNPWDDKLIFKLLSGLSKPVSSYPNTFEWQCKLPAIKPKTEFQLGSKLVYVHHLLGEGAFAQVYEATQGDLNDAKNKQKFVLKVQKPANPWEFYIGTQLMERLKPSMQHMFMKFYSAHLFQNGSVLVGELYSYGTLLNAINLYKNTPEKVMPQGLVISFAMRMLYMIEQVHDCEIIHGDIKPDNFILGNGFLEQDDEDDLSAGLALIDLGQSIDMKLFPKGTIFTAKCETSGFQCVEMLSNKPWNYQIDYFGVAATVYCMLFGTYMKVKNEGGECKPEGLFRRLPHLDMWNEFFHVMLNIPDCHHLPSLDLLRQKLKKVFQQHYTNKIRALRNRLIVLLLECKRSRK

Regarding `CC(=O)Nc1cccc(-n2c(=O)n(C3CC3)c(=O)c3c(Nc4ccc(I)cc4F)n(C)c(=O)c(C)c32)c1` [TRAMETINIB], the Kd (in test [1]; in test [2]; in test [3]; in test [4]; in test [5]; at Actin-related protein 2) was > 30 µM (inactive) in each case. The Kd (in [6]; at Ephrin type-B receptor 6; in test [7]; in [8]) was > 30 µM (inactive) throughout.
In the case of `COC(=O)N[C@@H](C)CNc1nccc(-c2cn(C(C)C)nc2-c2cc(Cl)cc(NS(C)(=O)=O)c2F)n1` [ENCORAFENIB], the Kd (in [1]; in [2]; in test [3]; in test [4]; in [5]; on Actin-related protein 2) was > 30 µM (inactive) in each case. The Kd in [6] is > 30 µM (inactive); at Ephrin type-B receptor 6, > 30 µM (inactive); in test [7] it was > 30 µM (inactive); in test [8], 5.26 µM (active).
Turning to `CNS(=O)(=O)Nc1nccc(Cc2c(C)c3ccc(Oc4ncccn4)cc3oc2=O)c1F` [AVUTOMETINIB], the Kd (in test [1]; in test [2]; in test [3]; in test [4]; in test [5]; at Actin-related protein 2) was > 30 µM (inactive) throughout. The Kd (in [6]; on Ephrin type-B receptor 6; in [7]; in test [8]) was > 30 µM (inactive) each time.
In the case of `COc1ccc(-c2ccc3c(N4CCOC[C@@H]4C)nc(N4CCOC[C@@H]4C)nc3n2)cc1CO` [AZD-8055], the Kd (in test [1]; in test [2]; in test [3]; in test [4]; in test [5]; on Actin-related protein 2) was > 30 µM (inactive) in each case. Besides, the Kd (in [6]; at Ephrin type-B receptor 6; in [7]; in test [8]) was > 30 µM (inactive) throughout.
Regarding `O=C(O)[C@]1(Cc2cccc(Nc3nccs3)n2)CC[C@@H](Oc2cccc(Cl)c2F)CC1` [MK-5108], the Kd (in [1]; in [2]; in [3]; in test [4]; in test [5]; at Actin-related protein 2) was > 30 µM (inactive) each time. In addition, the Kd (in test [6]; at Ephrin type-B receptor 6; in [7]; in test [8]) was > 30 µM (inactive) throughout.
`Cc1cc2c(F)c(Oc3ncnn4cc(OC[C@@H](C)OC(=O)[C@H](C)N)c(C)c34)ccc2[nH]1` [BRIVANIB ALANINATE]: the Kd (in test [1]; in [2]; in [3]; in [4]; in test [5]; on Actin-related protein 2) was > 30 µM (inactive) throughout. In addition, the Kd (in [6]; on Ephrin type-B receptor 6; in test [7]; in test [8]) was > 30 µM (inactive) each time.
Take `C[C@@H]1CN(Cc2ccc(F)cc2)[C@@H](C)CN1C(=O)c1cc2c(C(=O)C(=O)N(C)C)cn(C)c2cc1Cl` [TALMAPIMOD]: the Kd is > 30 µM (inactive) in test [1]; > 30 µM (inactive) in test [2]; > 30 µM (inactive) in test [3]; > 30 µM (inactive) in test [4]; > 30 µM (inactive) in [5]; 0.004 µM on Actin-related protein 2. Besides, the Kd (in test [6]; on Ephrin type-B receptor 6; in test [7]; in test [8]) was > 30 µM (inactive) in each case.
For `COc1cc2nccc(Oc3ccc(NC(=O)NC4CC4)c(Cl)c3)c2cc1C(N)=O` [LENVATINIB], the Kd (in test [1]; in test [2]; in test [3]; in [4]; in test [5]; at Actin-related protein 2) was > 30 µM (inactive) in each case. Besides, the Kd (in test [6]; at Ephrin type-B receptor 6; in test [7]; in test [8]) was > 30 µM (inactive) in each case.
For `COc1cc2nccc(Oc3ccc(NC(=O)Nc4cc(C)on4)c(Cl)c3)c2cc1OC` [TIVOZANIB], the Kd (in test [1]; in test [2]; in [3]; in [4]; in [5]; at Actin-related protein 2) was > 30 µM (inactive) in each case. The Kd (in test [6]; on Ephrin type-B receptor 6; in [7]; in test [8]) was > 30 µM (inactive) each time.
Turning to `N[C@@H]1CCCN(c2c(/C=C3\SC(=O)NC3=O)cccc2-c2ccccc2)C1`, the Kd (in test [1]; in test [2]; in test [3]; in test [4]; in test [5]; on Actin-related protein 2) was > 30 µM (inactive) each time. The Kd (in test [6]; on Ephrin type-B receptor 6; in test [7]; in test [8]) was > 30 µM (inactive) in each case.

Usually Kd stands for the free concentration of one partner at which half of the binding sites on the other are occupied at equilibrium, for simple one-to-one binding.
